From US10793549B2, “Sulfuryl-substituted benzoheterocyclic derivative, preparation method and medical use thereof” (SHANGHAI HAIYAN PHARMACEUTICAL TECHNOLOGY CO., LTD., priority 2016, dated 2020) come the findings set out here.

Molecules are shown by their SMILES.

In one experiment the test system is Pfeiffer cells. Briefly: Cell proliferation test (Cell counting kit-8, 6 days). Format: cell-based. The conditions noted are these: Pfeiffer (CRL-2632) cells, culture for 6 days, viable cells by Cell counting kit-8. Here is the method: The used cell lines Pfeiffer (CRL-2632), suDHL-6 (CRL-2959) and suDHL-10 (CRL-2963) were purchased from American Type Culture Collection (ATCC). All cell lines were cultured in RPMI-1640 medium (Gibco) containing 10% fetal bovine serum (Gibco). The cultured cells were collected by centrifugation and the cell density was measured on a CounterStar counter. Appropriate number of cells were then seeded in a 96-well culture plate and incubated overnight. Compounds to be tested were diluted by 8 gradient points in a ratio of 1:3 and added into the corresponding wells. After continuing to culture for 6 days, the number of viable cells was measured with Cell counting kit-8, and the absorbance value was read on Tecan infinite pro. The IC50 was calculated by fitting a four-parameter model in the XLfit software.
Background: Tetrazolium assays rely on reduction of a dye to a coloured formazan, in cell work by metabolically active cells.

In another experiment the target is EZH2 Y641F (Homo sapiens (Human), UniProt Q15910, Y641F). Briefly: In vitro methyltransferase activity test (LANCE Ultra). The experiment is classed as biochemical. Conditions: Recombinant PRC2 (EZH2-Y641F), 2.5 μM SAM/250 nM H3(1-50)K27me1, 3 hours, room temperature. A general note: Time-resolved FRET reads energy transfer from a long-lived donor to a nearby acceptor.
Chain of EZH2 Y641F (Q15910 whole entry Y641F): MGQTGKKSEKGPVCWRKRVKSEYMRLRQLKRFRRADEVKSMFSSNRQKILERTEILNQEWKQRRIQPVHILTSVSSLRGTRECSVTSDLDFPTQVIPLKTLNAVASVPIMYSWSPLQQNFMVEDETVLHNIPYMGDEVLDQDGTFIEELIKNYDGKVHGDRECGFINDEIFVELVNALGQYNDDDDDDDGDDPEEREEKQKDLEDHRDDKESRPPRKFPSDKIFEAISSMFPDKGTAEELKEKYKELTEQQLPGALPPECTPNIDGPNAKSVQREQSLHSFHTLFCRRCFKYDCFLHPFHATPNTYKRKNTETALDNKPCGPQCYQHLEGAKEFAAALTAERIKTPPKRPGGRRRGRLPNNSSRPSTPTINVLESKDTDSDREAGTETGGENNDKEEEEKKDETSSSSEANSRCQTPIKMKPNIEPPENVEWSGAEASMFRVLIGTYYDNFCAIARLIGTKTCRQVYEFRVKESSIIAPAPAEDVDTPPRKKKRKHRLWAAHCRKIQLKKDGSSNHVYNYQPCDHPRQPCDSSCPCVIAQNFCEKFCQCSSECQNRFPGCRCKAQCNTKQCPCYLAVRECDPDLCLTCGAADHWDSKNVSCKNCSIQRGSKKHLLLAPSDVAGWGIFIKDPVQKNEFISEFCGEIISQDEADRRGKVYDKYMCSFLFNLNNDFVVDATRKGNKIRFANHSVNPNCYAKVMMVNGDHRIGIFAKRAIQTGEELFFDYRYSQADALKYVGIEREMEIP
Chain of EZH2 Y641F (O75530 whole entry partner): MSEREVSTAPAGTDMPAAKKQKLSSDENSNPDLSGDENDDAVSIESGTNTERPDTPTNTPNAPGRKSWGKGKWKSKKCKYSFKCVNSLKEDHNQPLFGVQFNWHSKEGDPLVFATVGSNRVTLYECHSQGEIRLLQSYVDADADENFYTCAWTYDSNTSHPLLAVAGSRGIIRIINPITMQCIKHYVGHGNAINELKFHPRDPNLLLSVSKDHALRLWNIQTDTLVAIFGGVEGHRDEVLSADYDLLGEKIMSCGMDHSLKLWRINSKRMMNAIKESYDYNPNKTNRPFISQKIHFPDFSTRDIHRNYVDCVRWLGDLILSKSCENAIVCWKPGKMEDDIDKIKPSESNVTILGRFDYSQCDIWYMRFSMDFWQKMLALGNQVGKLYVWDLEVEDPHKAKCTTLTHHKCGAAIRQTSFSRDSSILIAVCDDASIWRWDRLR
Chain of EZH2 Y641F (Q15022 whole entry partner): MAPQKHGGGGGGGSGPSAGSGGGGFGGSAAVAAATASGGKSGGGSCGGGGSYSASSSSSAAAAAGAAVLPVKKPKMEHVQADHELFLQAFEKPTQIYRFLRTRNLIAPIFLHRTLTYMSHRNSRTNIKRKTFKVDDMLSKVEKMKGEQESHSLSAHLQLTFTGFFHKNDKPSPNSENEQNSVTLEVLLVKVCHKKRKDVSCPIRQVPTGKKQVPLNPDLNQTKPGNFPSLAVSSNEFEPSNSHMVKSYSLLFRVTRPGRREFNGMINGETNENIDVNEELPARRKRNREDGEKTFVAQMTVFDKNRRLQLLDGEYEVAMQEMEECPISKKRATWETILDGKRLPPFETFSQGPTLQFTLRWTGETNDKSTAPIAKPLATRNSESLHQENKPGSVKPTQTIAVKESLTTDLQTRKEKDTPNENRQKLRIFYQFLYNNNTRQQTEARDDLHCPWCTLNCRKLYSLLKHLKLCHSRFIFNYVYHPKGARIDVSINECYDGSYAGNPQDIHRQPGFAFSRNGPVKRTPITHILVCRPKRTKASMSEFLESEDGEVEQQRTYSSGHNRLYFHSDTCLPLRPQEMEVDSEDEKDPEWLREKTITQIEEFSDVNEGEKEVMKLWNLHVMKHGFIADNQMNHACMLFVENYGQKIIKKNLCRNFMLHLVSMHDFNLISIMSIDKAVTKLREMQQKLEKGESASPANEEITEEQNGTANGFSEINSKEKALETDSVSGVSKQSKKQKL
Chain of EZH2 Y641F (Q09028 whole entry partner): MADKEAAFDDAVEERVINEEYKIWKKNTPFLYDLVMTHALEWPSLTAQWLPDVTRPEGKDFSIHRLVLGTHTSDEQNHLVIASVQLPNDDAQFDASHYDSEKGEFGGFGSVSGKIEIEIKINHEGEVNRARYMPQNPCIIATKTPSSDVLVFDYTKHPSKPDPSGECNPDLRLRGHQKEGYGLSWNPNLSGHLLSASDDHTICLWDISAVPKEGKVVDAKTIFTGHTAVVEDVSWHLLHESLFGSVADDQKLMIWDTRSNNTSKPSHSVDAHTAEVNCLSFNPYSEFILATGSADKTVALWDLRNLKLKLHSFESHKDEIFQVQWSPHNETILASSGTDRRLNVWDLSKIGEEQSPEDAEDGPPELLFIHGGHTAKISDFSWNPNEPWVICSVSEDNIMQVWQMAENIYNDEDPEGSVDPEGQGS
Chain of EZH2 Y641F (Q6ZN18 whole entry partner): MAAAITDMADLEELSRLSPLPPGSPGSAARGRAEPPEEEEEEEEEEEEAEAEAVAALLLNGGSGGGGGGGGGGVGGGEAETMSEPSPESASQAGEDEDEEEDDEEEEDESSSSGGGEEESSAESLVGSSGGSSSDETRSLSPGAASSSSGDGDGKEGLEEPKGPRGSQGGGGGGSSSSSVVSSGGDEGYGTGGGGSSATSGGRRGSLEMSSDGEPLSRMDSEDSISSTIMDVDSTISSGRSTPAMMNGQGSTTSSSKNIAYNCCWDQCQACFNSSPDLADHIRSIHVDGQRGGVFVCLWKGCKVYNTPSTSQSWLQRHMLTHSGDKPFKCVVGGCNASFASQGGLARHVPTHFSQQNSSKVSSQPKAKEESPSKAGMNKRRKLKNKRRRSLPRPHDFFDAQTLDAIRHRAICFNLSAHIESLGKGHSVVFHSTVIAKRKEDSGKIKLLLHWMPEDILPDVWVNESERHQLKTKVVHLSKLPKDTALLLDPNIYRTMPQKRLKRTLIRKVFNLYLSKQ

Method for EZH2 Y641F: The detection system uses LANCEUltra system (Perkinelmer company). […] And then a buffer [20 mM Tris pH8.5, 2 mM MgCl2, 0.01% Tween-20, 1 mM TCEP] containing 2.5 μM SAM/250 nM H3 (1-50)K27me1 premixtures was added, thus the enzyme reaction was started at room temperature. After reacting for 3 hours, a test solution premixed with PLL, detection antibody and Ulight was added, and reacted for 1h at room temperature, then the fluorescence value was read on a Tecan infinite pro. IC50 was calculated by fitting a four-factor model in the XLfit software.

On to `C=CCC1(S(=O)(=O)n2cc(C)c3c(C(=O)NCc4c(C)cc(C)[nH]c4=O)cc(-c4cnc(N5CCN(C)CC5)nc4)cc32)CC1` [Compound G-13], for which the IC50 (commonly the concentration at which inhibition is half-maximal) with Pfeiffer cells was determined as 75 nM; at EZH2 Y641F, 13 nM.

In the case of `C=CCC1(S(=O)(=O)n2cc(C)c3c(C(=O)NCc4c(C)cc(C)[nH]c4=O)cc(-c4ccc(CN(C)C)c(F)c4)cc32)CC1` [Compound G-16], the results for the IC50 with Pfeiffer cells and at EZH2 Y641F were 335 nM and 23 nM, respectively.

As to `C=CCC1(S(=O)(=O)n2cc(C)c3c(C(=O)NCc4c(OC)cc(C)[nH]c4=O)cc(-c4ccc(CN(C)C)cc4)cc32)CC1` [Compound G-32], the figures for the IC50 in the experiment with Pfeiffer cells and on EZH2 Y641F were 79 nM and 8 nM, respectively.

Turning to `C=CCC1(S(=O)(=O)n2nc(C(F)F)c3c(C(=O)NCc4c(C)cc(C)[nH]c4=O)cc(-c4ccc(N5CCN(C)CC5)nc4)cc32)CC1` [Compound G-78], the values for the IC50 with Pfeiffer cells and at EZH2 Y641F were 2520 nM and 1420 nM, respectively.

For `C=CCC1(S(=O)(=O)n2cc(C)c3c(C(=O)NCc4c(C)cc(C)[nH]c4=O)cc(-c4cccnc4)cc32)CC1` [Compound G-7], the IC50 turned out to be 380 nM with Pfeiffer cells and 33 nM at EZH2 Y641F.

Consider `Cc1cc(C)c(CNC(=O)c2cc(-c3ccc(N4CCN(C)CC4)nc3)cc3c2CCN3S(=O)(=O)C(C)C)c(=O)[nH]1` [Compound G-47, N-((4,6-dimethyl-2-oxo-1,2-dihydropyridin-3-yl)methyl)-1-(isopropylsulfonyl)-6-(6-(4-methylpiperazin-1-yl)pyridin-3-yl)dihydroindole-4-carboxamide], for which the values for the IC50 in the experiment with Pfeiffer cells and on EZH2 Y641F were 2040 nM and 160 nM, respectively.

Regarding `C=CCC1(S(=O)(=O)n2cc(C)c3c(C(=O)NCc4c(C)cc(C)[nH]c4=O)cc(-c4cnc(N5CC(F)C5)nc4)cc32)CC1` [Compound G-24], the results for the IC50 in the experiment with Pfeiffer cells and on EZH2 Y641F were 60 nM and 32 nM, respectively.

For the molecule `C=CCC1(S(=O)(=O)n2cc(C)c3c(C(=O)NCc4c(C)cc(C)[nH]c4=O)cc(-c4ccc(CN(C)C)cc4)cc32)CC1` [Compound G-6], the IC50 with Pfeiffer cells came out at 352 nM; at EZH2 Y641F, 19 nM.

Regarding `C=CCC1(S(=O)(=O)n2cc(C)c3c(C(=O)NCc4c(C)cc(C)[nH]c4=O)cc(-c4ccc(F)c(CN(C)C)c4)cc32)CC1` [Compound G-21], the half-maximal inhibitory concentration (IC50) on EZH2 Y641F was determined as 37 nM.

Regarding `C=CCC1(S(=O)(=O)n2nc(C)c3c(C(=O)NCc4c(C)cc(C)[nH]c4=O)cc(-c4ccc(N5CCN(C)CC5)nc4)cc32)CC1` [Compound G-79], the IC50 in the experiment with Pfeiffer cells stood at 2820 nM; at EZH2 Y641F, 585 nM.

Turning to `C=CCC1(S(=O)(=O)n2cc(C)c3c(C(=O)NCc4c(C)cc(C)[nH]c4=O)cc(-c4ccc(CCN5CCOCC5)nc4)cc32)CC1` [Compound G-3], the figures for the IC50 in the experiment with Pfeiffer cells and at EZH2 Y641F were 300 nM and 28 nM, respectively.

Consider `C=CCC1(S(=O)(=O)n2cc(C)c3c(C(=O)NCc4c(OC)cc(C)[nH]c4=O)cc(-c4ccc(N)nc4)cc32)CC1` [Compound G-36], for which the IC50 with Pfeiffer cells is 85 nM; on EZH2 Y641F it was 16 nM.

For the molecule `C=CCC1(S(=O)(=O)n2cc(C)c3c(C(=O)NCc4c(C)cc(C)[nH]c4=O)cc(-c4ccc(OCCN(C)C)cc4)cc32)CC1` [Compound G-5], the IC50 in the experiment with Pfeiffer cells turned out to be 429 nM; at EZH2 Y641F it was 17 nM.

Regarding `C=CCC1(S(=O)(=O)n2cc(C)c3c(C(=O)NCc4c(C)cc(C)[nH]c4=O)cc(-c4ccc(N(C)C)nc4)cc32)CC1` [Compound G-8], the IC50 in the experiment with Pfeiffer cells was 327 nM; on EZH2 Y641F, 40 nM.

As to `C=CCC1(S(=O)(=O)n2cc(C)c3c(C(=O)NCc4c(OC)cc(C)[nH]c4=O)cc(-c4cnc(N5CCN(C(C)C)CC5)nc4)cc32)CC1` [Compound G-67], the IC50 with Pfeiffer cells (Homo sapiens, 144 h) was 22 nM; on EZH2 Y641F, 7 nM.

As for `C=CCC1(S(=O)(=O)n2cc(C)c3c(C(=O)NCc4c(C)cc(C)[nH]c4=O)cc(-c4ccc(N5CCN(C(C)C)CC5)nc4)cc32)CC1` [Compound G-48, 1-(1-allylcyclopropylsulfonyl)-N-((4,6-dimethyl-2-oxo-1,2-dihydropyridin-3-yl)methyl)-6-(6-(4-isopropylpiperazin-1-yl)pyridin-3-yl)-3-methyl-1H-indole-4-carboxamide], the IC50 in the experiment on Pfeiffer cells (Homo sapiens, 144 h) was 211 nM; at EZH2 Y641F, 28 nM.

As for `C=CCC1(S(=O)(=O)n2cc(C)c3c(C(=O)NCc4c(C)cc(C)[nH]c4=O)cc(-c4ccc(CN(C)C)cc4F)cc32)CC1` [Compound G-15], the IC50 was 219 nM with Pfeiffer cells and 25 nM at EZH2 Y641F.

Consider `C=CCC1(S(=O)(=O)n2cc(C)c3c(C(=O)NCc4c(C)cc(C)[nH]c4=O)cc(-c4ccc(OCCCN(C)C)cc4)cc32)CC1` [Compound G-11], for which, on EZH2 Y641F, the IC50 worked out at 32 nM.

For the molecule `C=CCC1(S(=O)(=O)n2cc(C)c3c(C(=O)NCc4c(OC)cc(C)[nH]c4=O)cc(-c4cnc(N5CC(F)C5)nc4)cc32)CC1` [Compound G-30], the IC50 in the experiment on Pfeiffer cells worked out at 97 nM; at EZH2 Y641F, 9 nM.

Regarding `C=CCC1(S(=O)(=O)n2cc(C)c3c(C(=O)NCc4c(C)cc(C)[nH]c4=O)cc(-c4ccc(CN(C)C)cc4F)cc32)CC1` [Compound G-18], the figures for the IC50 in the experiment on Pfeiffer cells and at EZH2 Y641F were 368 nM and 42 nM, respectively.

`C=CCC1(S(=O)(=O)n2cc(C)c3c(C(=O)NCc4c(OC(F)F)cc(C)[nH]c4=O)cc(-c4ccc(N5CCN(C)CC5)nc4)cc32)CC1` [Compound G-68]: the IC50 with Pfeiffer cells stood at 152 nM; on EZH2 Y641F it was 34 nM.

Take `C=CCC1(S(=O)(=O)n2cc(C)c3c(C(=O)NCc4c(C)cc(C)[nH]c4=O)cc(-c4ccc(N)nc4)cc32)CC1` [Compound G-9]: the IC50 in the experiment with Pfeiffer cells stood at 450 nM; on EZH2 Y641F it was 35 nM.

`C#CCCS(=O)(=O)n1cc(C)c2c(C(=O)NCc3c(OC)cc(C)[nH]c3=O)cc(-c3ccc(N4CCN(C)CC4)nc3)cc21` [Compound G-81]: the IC50 in the experiment with Pfeiffer cells is 3800 nM; at EZH2 Y641F it was 196 nM.

Regarding `C=CCC1(S(=O)(=O)N2CC(C)c3c(C(=O)NCc4c(C)cc(C)[nH]c4=O)cc(-c4ccc(CN(C)C)cc4)cc32)CC1` (centres unmarked) [Compound G-75], the IC50 was 1840 nM in the experiment with Pfeiffer cells and 280 nM on EZH2 Y641F.

As to `C=CCC1(S(=O)(=O)N2CC(C)c3c(C(=O)NCc4c(C)cc(C)[nH]c4=O)cc(-c4ccc(N5CCN(C)CC5)nc4)cc32)CC1` (centres unmarked) [Compound G-77], the IC50 in the experiment with Pfeiffer cells worked out at 1530 nM; at EZH2 Y641F, 147 nM.

In the case of `C=CCC1(S(=O)(=O)n2cc(C)c3c(C(=O)NCc4c(OC)cc(C)[nH]c4=O)cc(N4CCN(C)CC4)cc32)CC1` [Compound G-69], the IC50 at EZH2 Y641F was found to be 26 nM.

As to `C=CCC1(S(=O)(=O)n2cc(C)c3c(C(=O)NCc4c(C)cc(C)[nH]c4=O)cc(-c4ccc(CN(C)C)cc4)cc32)CC1` [Compound G-4], the IC50 at EZH2 Y641F is 22 nM.

For `C=CCC1(S(=O)(=O)N2CCc3c(C(=O)NCc4c(C)cc(C)[nH]c4=O)cc(-c4ccc(N5CCN(C)CC5)nc4)cc32)CC1` [Compound G-76], the half-inhibitory concentration (IC50) in the experiment with Pfeiffer cells was determined as 2590 nM; on EZH2 Y641F, 460 nM.

Consider `C=CCC1(S(=O)(=O)n2cc(C)c3c(C(=O)NCc4c(C)cc(C)[nH]c4=O)cc(-c4ccc(N5CCOCC5)nc4)cc32)CC1` [Compound G-12], for which the IC50 with Pfeiffer cells came out at 485 nM; at EZH2 Y641F, 58 nM.

With `C=CCC1(S(=O)(=O)n2cc(C)c3c(C(=O)NCc4c(C)cc(C)[nH]c4=O)cc(-c4cnc(N5CCNCC5)nc4)cc32)CC1` [Compound G-65], the IC50 in the experiment on Pfeiffer cells stood at 171 nM; at EZH2 Y641F, 17 nM.

As to `C=CCC1(S(=O)(=O)n2cc(C)c3c(C(=O)NCc4c(C)cc(C)[nH]c4=O)cc(-c4ccc(C#N)nc4)cc32)CC1` [Compound G-10], the IC50 at EZH2 Y641F is 41 nM.

In the case of `C=CCC1(S(=O)(=O)n2cc(OC)c3c(C(=O)NCc4c(C)cc(C)[nH]c4=O)cc(-c4ccc(N5CCN(C)CC5)nc4)cc32)CC1` [Compound G-14], the 50% inhibitory concentration (IC50) in the experiment with Pfeiffer cells was 27 nM; at EZH2 Y641F, 5 nM.
